Source: patent publication US8642622B2, “Piperidinyl compound as a modulator of chemokine receptor activity” (Bristol-Myers Squibb Company, priority 2010, dated 2014)

Legend:
[1] = Human liver microsomal metabolism, Assay Conditions B; assay type: in vitro ADME; details: 3 μM compound, 10 minutes, 37° C.
Procedure: Test compound is received as 20 mM in DMSO. Compound is diluted to create a 300 μM acetonitrile (ACN) solution containing 1.5% DMSO, which is then used as a 100× stock for incubation with microsomes. Each compound is tested in duplicate separately in each of three species in the Metabolic Stability-Human, Rat, Mouse assay suite or individual species in the Metabolic Stability-Dog or Metabolic Stability-Monkey suites. Compound, NADPH and liver microsome solutions are combined for incubation in three steps: • 1. 450 μL of liver microsome suspension, protein concentration of 1 mg/mL in 100 mM NaPi, pH 7.4, 6.6 mM MgCl2 buffer, are pre-warmed at 37° C. • 2. […] of 300 μM compound (98.5% CAN, 1.5% DMSO) is added to the same tube. • 3. The reaction is initiated by the addition of 50 μL of pre-warmed 5 mM NADPH solution in 100 mM NaPi, pH 7.4.
Reaction components are mixed well and 150 μL removed to quench/stop solution immediately for the zero-minute time point. Reactions are incubated at 37° C. for 10 minutes and then an additional 150 μL removed from incubation. Aliquots removed are combined with 300 μL ACN which contains 100 μM DMN as a UV standard for detection.
Quenched mixtures are centrifuged at 1500 rpm (˜500×g) in an Allegra X-12 centrifuge, SX4750 rotor (Beckman Coulter Inc., Fullerton, Calif.) for fifteen minutes to pellet denatured microsomes. A volume of 110 μl of supernatant extract, containing the mixture of parent compound and its metabolites, is then transferred to a separate 96-well plate for UV-LC/MS-MS analysis to determine the percent of parent compound that is remaining in the mixture.

[2] = Single-dose pharmacokinetics in rats; assay type: in vivo; details: male, Sprague-Dawley, rat, plasma; for clearance: intravenous; for bioavailability: po, oral solution, read-out: Rat oral bioavailability when dosed as solution
Procedure: Serial blood samples were collected for all studies from the jugular vein at various time points post dose (0.17 (or 0.25 for oral), 0.5, 0.75, 1, 2, 4, 6, 8 and 24 h, for example). Plasma samples were analyzed by LC-MS/MS.
Additional studies evaluating suspensions of crystalline drug substance in aqueous medium were performed as described above.

[3] = Human liver microsomal metabolism, Assay Conditions A; assay type: in vitro ADME; details: 0.5 μM compound, 10 minutes, 37° C.
Procedure: Test compound is received as a 3.5 mM stock solution in 100 percent DMSO. Compound is diluted to create a 50 μM acetonitrile (ACN) solution containing 1.4% DMSO, which is then used as a 100× stock for incubation with microsomes. Each compound is tested in duplicate separately in each of three species in the Metabolic Stability-Human, Rat, and Mouse assay suite or as individual species in the Metabolic Stability-Dog or Metabolic Stability-Monkey suites. Compound, NADPH and liver microsome solutions are combined for incubation in three steps:
152 μL of liver microsome suspension, protein concentration of 1.1 mg/mL in 100 mM NaPi, pH 7.4, 6.6 mM MgCl2 buffer, is pre-warmed at 37° C.
• 1) 1.7 μL of 50 μM compound (98.6% ACN, 1.4% DMSO) is added to the same tube and pre-incubated at 37° C. for 5 minutes. • 2) The reaction is initiated by the addition of 17 μL of pre-warmed 10 mM NADPH solution in 100 mM NaPi, pH 7.4. • 3) Reaction components are mixed well, and 75 μL are immediately transferred into 150 μl quench/stop solution (zero-time point, To). Reactions are incubated at 37° C. for 10 minutes and then an additional 75 μL aliquot is transferred into 150 μL quench solution. Acetonitrile containing 100 μM DMN (a UV standard for injection quality control), is used as the quench solution to terminate metabolic reactions. • 4) Quenched mixtures are centrifuged at 1500 rpm (˜500×g) in an Allegra X-12 centrifuge, SX4750 rotor (Beckman Coulter Inc., Fullerton, Calif.) for fifteen minutes to pellet denatured microsomes. A volume of 90 μL of supernatant extract, containing the mixture of parent compound and its metabolites, is then transferred to a separate 96-well plate for UV-LC/MS-MS analysis to determine the percent of parent compound that is remaining in the mixture.

Human PXR = target: T1, Human PXR (Homo sapiens, UniProt O75469); assay: PXR transactivation assay (HepG2, CYP3A-Luc reporter); assay type: cell-based; details: reported as EC60
T1 construct: expressed in transfected cells; host or cells: HepG2
T1 sequence (O75469 1-434): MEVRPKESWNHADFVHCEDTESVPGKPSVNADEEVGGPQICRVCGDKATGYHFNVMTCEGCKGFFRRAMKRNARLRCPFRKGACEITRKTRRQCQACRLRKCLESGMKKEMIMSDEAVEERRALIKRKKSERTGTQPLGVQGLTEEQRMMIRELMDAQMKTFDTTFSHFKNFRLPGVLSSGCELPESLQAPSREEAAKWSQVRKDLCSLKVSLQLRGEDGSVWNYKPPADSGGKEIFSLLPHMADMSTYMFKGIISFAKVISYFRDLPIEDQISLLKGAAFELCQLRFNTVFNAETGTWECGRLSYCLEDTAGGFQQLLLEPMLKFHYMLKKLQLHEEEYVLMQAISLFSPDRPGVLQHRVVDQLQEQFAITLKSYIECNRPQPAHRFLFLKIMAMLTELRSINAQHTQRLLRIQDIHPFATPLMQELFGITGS
Excerpt: The cell culture medium used is DMEM. […] Charcoal/dextran treated fetal bovine serum (FBS) was purchased from Hyclone (Logan, Utah). HepG2 cells were obtained from ATCC (Manassas, Va.). Human PXR-pcDNA3 and luciferase reporter containing CYP3A4 promoter, CYP3A-Luc, were generated at Bristol-Myers Squibb. White tissue culture (TC)-surface 384-well plates were purchased from Perkin Elmer (Boston, Mass.). Luciferase substrate (Steady-Glo) was purchased from Promega (Madison, Wis.). Control compounds rifampicin, mifepristone, and sulfinpyrazone were purchased from Sigma (St. Louis, Mo.).
Culture of HepG2 cells is performed in T175 flasks using DMEM containing 10% FBS. The transfection mixture contains 1 μg/mL of PXR-pcDNA3 plasmid DNA, 20 μg/ml of Cyp3A-Luc plasmid DNA, 90 μL/mL of Lipofectamine 2000, and serum-free medium. After incubating at room temperature for 20 minutes, the transfection mixture (1 ml per flask) is applied to the cells in fresh medium (20 mL per flask), and flasks incubated at 37° C. (5% CO2) overnight.
The flasks are then tapped vigorously to break up cell aggregates. After the addition of 8 mL of DMEM containing 5% charcoal/dextran-treated FBS, the entire mixture is transferred to conical tubes. Cells are then centrifuged at 1000 rpm for 5 minutes. Cell pellets are resuspended to a final count of ˜7×10^6 cells/mL in freezing media (DMEM containing 20% serum and 10% DMSO). The cell suspension is aliquoted into 15-mL polypropylene tubes, 5 mL per tube. Cells are slowly frozen by placing in a Styrofoam-insulated container at −80° C. overnight. Vials are transferred to an Ultracold (−140° C.) freezer after 24 hours for long-term storage.
Vials of cryopreserved cells are thawed rapidly in a warm water bath for five minutes. Cells are pooled and diluted to 50 mL in a 50-mL conical vial. The thawed cells are centrifuged at 1500 rpm for 5 minutes to collect the cells and the supernatant discarded. Cells are then resuspended in fresh Media II (DMEM containing 5% charcoal/dextran-treated FBS, 1% Penicillin/Streptomycin, 100 μM Non-essential Amino Acids, 1 mM Sodium Pyruvate, and 2 mM L-Glutamine), counted using the Guava Cell Counter, and diluted to 1.6×10^5 cells/ml in the same media.
Fifty microliters of cell mixture is added to wells in columns 1-23 of white tissue-culture treated 384-well plates containing 0.25 μL of test compound dissolved in 100% DMSO. Fifty microliters of Media II is added to wells in column 24. The plates are incubated at 37° C. (5% CO2) for 24 hours, then 5 μL of Alamar Blue reagent (Trek Diagnostics, Cat #00-100) is added to each well. Plates are then incubated an additional two hours at 37° C., 5% CO2 and then one hour at room temperature. […] After the fluorescence is measured, 25 μL of luciferase substrate (Steady-Glo, Promega) is added to each well. The plates are incubated for fifteen minutes at room temperature, after which the luminescence is read on a PheraStar (BMG Labtech) plate reader.
Rifampicin (10 μM), a well-known agonist of PXR, is included in each plate as an internal standard and positive control. The data is then expressed as percent control (% CTRL), where the control signal is the signal from the 10 μM rifampicin and the blank signal is that from the DMSO vehicle. % CTRL=((Compound signal−Blank signal)/(Control signal−Blank signal))*100
The EC50 is defined as the concentration corresponding to half of the maximal response derived from the fitted 20-point curve as determined using a four-parameter logistic regression model. Additionally, compounds may also be reported as EC20 or EC60.

Row | Structure (SMILES) | Human Liver Microsomal Metabolism % remaining (Assay Conditions B) [1] | clearance [2] [mL/min/kg] | bioavailability [2] [%] | Human Liver Microsomal Metabolism % remaining (Assay Conditions A) [3] | PXR EC60 (Human PXR)
1 | CC(C)[C@@H](NC(=O)C1CCCC1)C(=O)N1CC[C@](O)(c2ccc(Cl)cc2)C(C)(C)C1 [Example 460] | 16% | 10 | 8 | 47% | –
2 | CC(C)[C@@H](NC(=O)c1cccc(C(=O)O)c1)C(=O)N1CC[C@](O)(c2ccc(Cl)cc2)C(C)(C)C1 [Example 463] | – | 75 | 9 | – | –
3 | CC(C)CC(=O)N[C@@H](C(=O)N1CC[C@](O)(c2ccc(Cl)cc2)C(C)(C)C1)C(C)C [Example 466] | 33% | – | – | 67% | 1.12 (EC60) μM
4 | CC(C)NC(=O)N[C@@H](C(=O)N1CC[C@](O)(c2ccc(Cl)cc2)C(C)(C)C1)C(C)C [Example 850] | – | – | – | 99% (A) | 10.2 (EC60) μM
5 | CC[C@@H](C)NC(=O)N[C@@H](C(=O)N1CC[C@](O)(c2ccc(Cl)cc2)C(C)(C)C1)C(C)C [Example 897] | – | – | – | 59% (A) | >50 (EC60) μM
6 | CC(C)[C@@H](NC(=O)CC(C)(C)O)C(=O)N1CC[C@](O)(c2ccc(Cl)cc2)C(C)(C)C1 [Example 1356] | 100% (A)/100% (B) | – | – | 100% (A)/100% (B) | –
